# Test results reported in ChEMBL document CHEMBL1821675, “The selective P-TEFb inhibitor CAN508 targets angiogenesis” (Eur J Med Chem, 2011).
# Calls of active or inactive are those of the source. The rule behind the calls is not given here.
# Assays:
# SF-295 = assay: Cytotoxicity against human SF295 cells; type: functional
# U-251 = assay: Cytotoxicity against human U251 cells; type: functional
# COLO 205 = assay: Cytotoxicity against human COLO205 cells; type: functional
# HT-29 = assay: Cytotoxicity against human HT-29 cells; type: functional
# HOP-62 = assay: Cytotoxicity against human HOP62 cells; type: functional
# HOP-92 = assay: Cytotoxicity against human HOP92 cells; type: functional
# NCI-H23 = assay: Cytotoxicity against human NCI-H23 cells; type: functional
# RPMI-8226 = assay: Cytotoxicity against human RPMI8226 cells; type: functional
# M14 = assay: Cytotoxicity against human M14 cells; type: functional
# Malme-3M = assay: Cytotoxicity against human MALME-3M cells; type: functional
# SK-MEL-28 = assay: Cytotoxicity against human SK-MEL-28 cells; type: functional
# SK-MEL-5 = assay: Cytotoxicity against human SK-MEL-5 cells; type: functional
# PC-3 = assay: Cytotoxicity against human PC3 cells; type: functional
# A498 = assay: Cytotoxicity against human A498 cells; type: functional
# HUVEC [1] = assay: Antiproliferative activity against HUVEC cells assessed as decrease in cell viability at >50 uM within 72 hrs by calcein AM staining-based fluorescence assay; settings: human
# [2] = Antiproliferative activity against HMEC1 cells assessed as decrease in cell viability at >50 uM within 72 hrs by calcein AM staining-based fluorescence assay; settings: human, hmec-1, 72 h
# HUVEC [3] = assay: Antiangiogenic activity against HUVEC cells assessed as inhibition of VEGF-induced cell migration-associated wound closure after 16 hrs by microscopic analysis; type: functional, cell-based; settings: Homo sapiens
# [4] = biological target: Cyclin-dependent kinase 9 (Homo sapiens) (UniProt P50750); assay: Inhibition of CDK9-catalyzed RNA polymerase 2 phosphorylation at Ser2 in human HMEC1 cells after 2 hrs by immunoblotting; type: cell-based
# Chain of Cyclin-dependent kinase 9 (Homo sapiens) (P50750 whole entry): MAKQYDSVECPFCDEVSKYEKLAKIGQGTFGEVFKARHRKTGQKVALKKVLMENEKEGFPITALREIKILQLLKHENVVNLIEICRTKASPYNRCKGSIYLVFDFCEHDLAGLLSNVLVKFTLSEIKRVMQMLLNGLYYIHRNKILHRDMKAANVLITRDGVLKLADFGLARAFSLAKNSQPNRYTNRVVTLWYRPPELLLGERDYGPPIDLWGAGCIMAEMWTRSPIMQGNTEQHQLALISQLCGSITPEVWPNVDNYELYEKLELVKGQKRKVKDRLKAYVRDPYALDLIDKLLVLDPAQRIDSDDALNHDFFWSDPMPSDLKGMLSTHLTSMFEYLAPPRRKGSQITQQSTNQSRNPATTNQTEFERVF
# [5] = biological target: Cyclin-dependent kinase 7 (Homo sapiens) (UniProt P50613); assay: Inhibition of CDK7-catalyzed RNA polymerase 2 phosphorylation at Ser5 in human HMEC1 cells at 5 to 40 uM after 2 hrs by immunoblotting; type: cell-based
# Chain of Cyclin-dependent kinase 7 (Homo sapiens) (P50613 whole entry): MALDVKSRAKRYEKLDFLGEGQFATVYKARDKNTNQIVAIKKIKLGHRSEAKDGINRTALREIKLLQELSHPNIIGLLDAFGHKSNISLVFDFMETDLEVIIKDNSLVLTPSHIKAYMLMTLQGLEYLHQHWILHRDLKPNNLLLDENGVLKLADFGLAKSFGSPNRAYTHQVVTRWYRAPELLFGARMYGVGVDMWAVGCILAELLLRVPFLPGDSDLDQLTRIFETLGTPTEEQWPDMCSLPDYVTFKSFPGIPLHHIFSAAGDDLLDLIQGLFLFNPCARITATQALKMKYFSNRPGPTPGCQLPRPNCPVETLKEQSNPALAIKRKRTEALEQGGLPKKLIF
# [6] = biological target: Aurora kinase B (Homo sapiens) (UniProt Q96GD4); assay: Inhibition of Aurora B assessed as residual activity at 10 uM by radioactivity assay in presence of 20 uM ATP
# [7] = biological target: Cyclin-dependent kinase 2/cyclin A (Homo sapiens) (UniProt P24941+P20248+P78396); assay: Inhibition of CDK2/cyclin A assessed as residual activity at 10 uM by radioactivity assay in presence of 20 uM ATP; type: protein-complex assay
# [8] = biological target: Mitogen-activated protein kinase 3 (Homo sapiens) (UniProt P27361); assay: Inhibition of ERK1 assessed as residual activity at 10 uM by radioactivity assay in presence of 5 uM ATP
# [9] = biological target: Receptor tyrosine-protein kinase erbB-4 (Homo sapiens) (UniProt Q15303); assay: Inhibition of HER4 assessed as residual activity at 10 uM by radioactivity assay in presence of 5 uM ATP
# [10] = biological target: Homeodomain-interacting protein kinase 2 (Homo sapiens) (UniProt Q9H2X6); assay: Inhibition of HIPK2 assessed as residual activity at 10 uM by radioactivity assay in presence of 5 uM ATP
# [11] = biological target: Tyrosine-protein kinase JAK2 (Homo sapiens) (UniProt O60674); assay: Inhibition of JAK2 assessed as residual activity at 10 uM by radioactivity assay in presence of 5 uM ATP
# Chain of Tyrosine-protein kinase JAK2 (Homo sapiens) (O60674 whole entry): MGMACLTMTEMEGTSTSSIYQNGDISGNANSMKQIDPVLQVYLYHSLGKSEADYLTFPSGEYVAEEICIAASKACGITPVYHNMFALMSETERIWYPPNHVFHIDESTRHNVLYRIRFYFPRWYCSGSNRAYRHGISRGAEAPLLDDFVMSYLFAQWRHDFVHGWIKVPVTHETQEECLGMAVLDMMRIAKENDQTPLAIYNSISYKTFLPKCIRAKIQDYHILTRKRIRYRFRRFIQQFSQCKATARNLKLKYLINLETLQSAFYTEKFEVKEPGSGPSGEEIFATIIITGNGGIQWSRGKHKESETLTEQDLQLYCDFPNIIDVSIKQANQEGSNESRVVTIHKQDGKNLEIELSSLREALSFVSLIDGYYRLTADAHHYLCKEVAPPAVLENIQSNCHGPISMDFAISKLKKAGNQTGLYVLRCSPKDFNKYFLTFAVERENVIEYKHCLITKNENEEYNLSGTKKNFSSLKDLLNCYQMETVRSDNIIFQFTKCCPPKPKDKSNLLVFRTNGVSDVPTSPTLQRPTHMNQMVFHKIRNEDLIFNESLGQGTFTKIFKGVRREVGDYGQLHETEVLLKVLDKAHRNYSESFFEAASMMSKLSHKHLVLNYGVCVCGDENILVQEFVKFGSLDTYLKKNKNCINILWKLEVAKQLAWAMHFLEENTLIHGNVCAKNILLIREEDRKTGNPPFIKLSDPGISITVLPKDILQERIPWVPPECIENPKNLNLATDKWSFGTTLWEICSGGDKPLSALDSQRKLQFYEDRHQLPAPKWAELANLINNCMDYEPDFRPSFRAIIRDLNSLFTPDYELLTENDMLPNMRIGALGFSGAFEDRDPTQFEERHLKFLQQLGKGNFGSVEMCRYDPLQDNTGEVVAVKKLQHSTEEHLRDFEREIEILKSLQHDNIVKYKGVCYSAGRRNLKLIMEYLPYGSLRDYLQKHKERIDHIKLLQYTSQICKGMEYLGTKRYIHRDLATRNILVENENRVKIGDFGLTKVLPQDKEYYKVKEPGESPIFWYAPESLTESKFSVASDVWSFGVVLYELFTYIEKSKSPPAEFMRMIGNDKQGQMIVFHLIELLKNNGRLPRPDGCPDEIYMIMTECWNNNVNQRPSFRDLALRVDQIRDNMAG
# [12] = biological target: MAP kinase-activated protein kinase 2 (Homo sapiens) (UniProt P49137); assay: Inhibition of MAPKAP-K2 assessed as residual activity at 10 uM by radioactivity assay in presence of 20 uM ATP
# [13] = biological target: MAP/microtubule affinity-regulating kinase 3 (Homo sapiens) (UniProt P27448); assay: Inhibition of MARK3 assessed as residual activity at 10 uM by radioactivity assay in presence of 5 uM ATP
# [14] = biological target: MAP/microtubule affinity-regulating kinase 4 (Homo sapiens) (UniProt Q96L34); assay: Inhibition of MARK4 assessed as residual activity at 10 uM by radioactivity assay in presence of 50 uM ATP
# [15] = biological target: Misshapen-like kinase 1 (Homo sapiens) (UniProt Q8N4C8); assay: Inhibition of MINK1 assessed as residual activity at 10 uM by radioactivity assay in presence of 50 uM ATP
# Chain of Misshapen-like kinase 1 (Homo sapiens) (Q8N4C8 whole entry, looked up): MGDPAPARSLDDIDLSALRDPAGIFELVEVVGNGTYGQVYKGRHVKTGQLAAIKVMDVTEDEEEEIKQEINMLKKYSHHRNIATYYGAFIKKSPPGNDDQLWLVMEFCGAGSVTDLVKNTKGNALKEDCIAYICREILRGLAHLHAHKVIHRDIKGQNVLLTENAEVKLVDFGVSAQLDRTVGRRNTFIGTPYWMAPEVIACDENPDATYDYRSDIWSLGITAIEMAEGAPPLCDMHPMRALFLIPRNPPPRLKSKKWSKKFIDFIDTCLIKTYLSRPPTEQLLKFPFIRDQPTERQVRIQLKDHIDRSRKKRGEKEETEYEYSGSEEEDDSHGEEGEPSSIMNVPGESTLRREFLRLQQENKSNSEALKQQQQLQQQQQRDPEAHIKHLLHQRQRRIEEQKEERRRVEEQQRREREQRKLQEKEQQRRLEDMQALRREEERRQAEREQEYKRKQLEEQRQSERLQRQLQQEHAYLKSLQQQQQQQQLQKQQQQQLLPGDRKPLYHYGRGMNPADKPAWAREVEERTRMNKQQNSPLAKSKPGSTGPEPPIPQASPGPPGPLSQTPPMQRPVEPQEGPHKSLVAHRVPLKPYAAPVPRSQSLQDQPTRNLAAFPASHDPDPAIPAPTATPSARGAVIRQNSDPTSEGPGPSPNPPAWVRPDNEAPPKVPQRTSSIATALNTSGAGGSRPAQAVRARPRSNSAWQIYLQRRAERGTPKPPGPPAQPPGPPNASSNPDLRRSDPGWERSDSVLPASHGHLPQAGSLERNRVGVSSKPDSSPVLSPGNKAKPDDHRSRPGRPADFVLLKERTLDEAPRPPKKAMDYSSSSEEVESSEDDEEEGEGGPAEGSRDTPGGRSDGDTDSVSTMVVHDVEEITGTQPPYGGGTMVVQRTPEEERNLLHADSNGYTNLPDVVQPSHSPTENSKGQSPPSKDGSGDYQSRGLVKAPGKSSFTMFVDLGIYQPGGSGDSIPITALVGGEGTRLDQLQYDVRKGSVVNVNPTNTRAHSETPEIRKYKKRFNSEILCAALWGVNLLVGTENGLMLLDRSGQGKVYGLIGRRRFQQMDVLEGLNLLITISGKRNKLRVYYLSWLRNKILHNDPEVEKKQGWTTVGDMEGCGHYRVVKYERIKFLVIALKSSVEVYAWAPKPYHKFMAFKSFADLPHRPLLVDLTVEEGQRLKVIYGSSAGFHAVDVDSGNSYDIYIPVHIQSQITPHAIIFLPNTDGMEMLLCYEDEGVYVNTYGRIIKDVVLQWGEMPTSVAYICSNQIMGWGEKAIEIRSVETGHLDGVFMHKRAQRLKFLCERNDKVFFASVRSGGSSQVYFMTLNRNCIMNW
# [16] = biological target: Mitogen-activated protein kinase kinase kinase 11 (Homo sapiens) (UniProt Q16584); assay: Inhibition of MLK3 assessed as residual activity at 10 uM by radioactivity assay in presence of 20 uM ATP
# [17] = biological target: MAP kinase-interacting serine/threonine-protein kinase 1 (Homo sapiens) (UniProt Q9BUB5); assay: Inhibition of MNK1 assessed as residual activity at 10 uM by radioactivity assay in presence of 50 uM ATP
# Chain of MAP kinase-interacting serine/threonine-protein kinase 1 (Homo sapiens) (Q9BUB5 whole entry, looked up): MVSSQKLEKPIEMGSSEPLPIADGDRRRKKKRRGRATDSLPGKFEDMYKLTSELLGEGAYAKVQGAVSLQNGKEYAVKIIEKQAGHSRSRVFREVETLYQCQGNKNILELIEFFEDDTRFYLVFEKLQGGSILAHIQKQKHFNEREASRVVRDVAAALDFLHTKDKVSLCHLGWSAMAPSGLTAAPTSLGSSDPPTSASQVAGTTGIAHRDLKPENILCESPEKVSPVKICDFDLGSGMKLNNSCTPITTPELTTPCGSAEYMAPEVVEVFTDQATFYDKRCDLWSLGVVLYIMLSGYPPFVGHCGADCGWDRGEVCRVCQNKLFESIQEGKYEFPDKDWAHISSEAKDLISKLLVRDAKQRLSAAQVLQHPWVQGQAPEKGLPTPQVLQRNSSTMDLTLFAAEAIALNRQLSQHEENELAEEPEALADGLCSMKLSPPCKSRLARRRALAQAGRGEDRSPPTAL
# [18] = biological target: Serine/threonine-protein kinase 3 (Homo sapiens) (UniProt Q13188); assay: Inhibition of MST2 assessed as residual activity at 10 uM by radioactivity assay in presence of 20 uM ATP
# [19] = biological target: Mitogen-activated protein kinase 13 (Homo sapiens) (UniProt O15264); assay: Inhibition of p38delta MAPK assessed as residual activity at 10 uM by radioactivity assay in presence of 5 uM ATP
# [20] = biological target: Serine/threonine-protein kinase PAK 5 (Homo sapiens) (UniProt Q9P286); assay: Inhibition of PAK5 assessed as residual activity at 10 uM by radioactivity assay in presence of 20 uM ATP
# [21] = biological target: Serine/threonine-protein kinase PAK 6 (Homo sapiens) (UniProt Q9NQU5); assay: Inhibition of PAK6 assessed as residual activity at 10 uM by radioactivity assay in presence of 20 uM ATP
# Chain of Serine/threonine-protein kinase PAK 6 (Homo sapiens) (Q9NQU5 whole entry, looked up): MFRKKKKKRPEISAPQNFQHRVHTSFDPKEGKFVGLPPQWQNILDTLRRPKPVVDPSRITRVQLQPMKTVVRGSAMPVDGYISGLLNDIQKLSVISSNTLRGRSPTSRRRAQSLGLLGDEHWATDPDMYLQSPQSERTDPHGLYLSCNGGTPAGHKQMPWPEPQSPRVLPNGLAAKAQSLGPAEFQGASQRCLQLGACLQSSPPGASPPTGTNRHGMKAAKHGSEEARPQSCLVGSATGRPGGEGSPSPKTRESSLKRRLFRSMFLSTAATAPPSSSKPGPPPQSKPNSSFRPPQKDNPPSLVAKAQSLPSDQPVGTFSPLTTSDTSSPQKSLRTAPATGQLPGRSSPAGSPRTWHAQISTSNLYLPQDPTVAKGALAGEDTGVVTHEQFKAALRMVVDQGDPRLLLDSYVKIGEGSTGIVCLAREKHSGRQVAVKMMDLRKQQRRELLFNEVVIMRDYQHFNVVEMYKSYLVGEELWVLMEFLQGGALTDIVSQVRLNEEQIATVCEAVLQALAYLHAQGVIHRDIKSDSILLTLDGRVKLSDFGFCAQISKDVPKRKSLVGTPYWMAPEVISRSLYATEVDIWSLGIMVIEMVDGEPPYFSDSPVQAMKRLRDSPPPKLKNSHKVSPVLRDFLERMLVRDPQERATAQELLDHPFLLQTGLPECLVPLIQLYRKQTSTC
# [22] = biological target: Receptor-interacting serine/threonine-protein kinase 2 (Homo sapiens) (UniProt O43353); assay: Inhibition of RIPK2 assessed as residual activity at 10 uM by radioactivity assay in presence of 20 uM ATP
# [23] = biological target: Ribosomal protein S6 kinase alpha-3 (Homo sapiens) (UniProt P51812); assay: Inhibition of RSK2 assessed as residual activity at 10 uM by radioactivity assay in presence of 50 uM ATP
# Chain of Ribosomal protein S6 kinase alpha-3 (Homo sapiens) (P51812 whole entry): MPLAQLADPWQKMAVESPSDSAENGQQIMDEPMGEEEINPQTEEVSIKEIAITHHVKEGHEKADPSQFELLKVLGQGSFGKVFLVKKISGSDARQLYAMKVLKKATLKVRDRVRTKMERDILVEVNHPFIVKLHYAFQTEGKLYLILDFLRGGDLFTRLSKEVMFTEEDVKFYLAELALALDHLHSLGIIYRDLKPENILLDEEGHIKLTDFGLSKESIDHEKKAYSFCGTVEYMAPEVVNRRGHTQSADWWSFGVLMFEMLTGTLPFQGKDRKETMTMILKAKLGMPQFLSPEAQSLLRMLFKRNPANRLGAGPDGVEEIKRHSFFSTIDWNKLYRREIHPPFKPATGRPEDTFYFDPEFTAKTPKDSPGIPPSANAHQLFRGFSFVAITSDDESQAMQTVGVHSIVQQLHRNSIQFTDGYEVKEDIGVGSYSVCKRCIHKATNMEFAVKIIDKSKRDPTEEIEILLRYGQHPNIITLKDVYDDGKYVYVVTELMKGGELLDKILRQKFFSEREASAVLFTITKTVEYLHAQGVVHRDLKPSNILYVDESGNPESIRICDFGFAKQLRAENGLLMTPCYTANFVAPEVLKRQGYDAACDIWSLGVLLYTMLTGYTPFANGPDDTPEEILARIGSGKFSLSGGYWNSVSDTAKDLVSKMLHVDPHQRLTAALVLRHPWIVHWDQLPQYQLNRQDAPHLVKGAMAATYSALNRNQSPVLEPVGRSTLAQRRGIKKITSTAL
# [24] = biological target: SRSF protein kinase 1 (Homo sapiens) (UniProt Q96SB4); assay: Inhibition of SRPK1 assessed as residual activity at 10 uM by radioactivity assay in presence of 50 uM ATP
# [25] = biological target: Mitogen-activated protein kinase kinase kinase 7 (Homo sapiens) (UniProt O43318); assay: Inhibition of TAK1 assessed as residual activity at 10 uM by radioactivity assay in presence of 5 uM ATP
# [26] = biological target: Serine/threonine-protein kinase TBK1 (Homo sapiens) (UniProt Q9UHD2); assay: Inhibition of TBK1 assessed as residual activity at 10 uM by radioactivity assay in presence of 50 uM ATP
# [27] = Antiproliferative activity against HMEC1 cells assessed as decrease in cell viability at 10 to 40 uM within 72 hrs by calcein AM staining-based fluorescence assay; settings: human, hmec-1, 72 h
smiles,measurement,setting,value
Nc1n[nH]c(N)c1/N=N/c1ccc(O)cc1,GI50,SF-295,23.3 µM
same,GI50,U-251,21.2 µM
same,GI50,COLO 205,18.9 µM
same,GI50,HT-29,29.7 µM
same,GI50,HOP-62,31.8 µM
same,GI50,HOP-92,18.2 µM
same,GI50,NCI-H23,19.1 µM
same,GI50,RPMI-8226,14.4 µM
same,GI50,M14,15.9 µM
same,GI50,Malme-3M,24.5 µM
same,GI50,SK-MEL-28,22.1 µM
same,GI50,SK-MEL-5,13.9 µM
same,GI50,PC-3,20.3 µM
same,GI50,A498,18.2 µM
same,Activity,HUVEC [1],Non-toxic
same,Activity,[2],Non-toxic
same,inhibition,HUVEC [3],Dose-dependent effect
same,inhibition,[4],Dose-dependent effect
same,inhibition,[5],Active
same,Activity,[6],46%
same,Activity,[7],27%
same,Activity,[8],115%
same,Activity,[9],59%
same,Activity,[10],44%
same,Activity,[11],19%
same,Activity,[12],26%
same,Activity,[13],50%
same,Activity,[14],72%
same,Activity,[15],29%
same,Activity,[16],31%
same,Activity,[17],37%
same,Activity,[18],57%
same,Activity,[19],77%
same,Activity,[20],88%
same,Activity,[21],97%
same,Activity,[22],57%
same,Activity,[23],96%
same,Activity,[24],85%
same,Activity,[25],53%
same,Activity,[26],55%
same,Activity,[27],Non-toxic
